Measurements taken from patent publication US4138554A, “7-[D-α-(4-Hydroxy-1,5-naphthyridine-3-carboxamido)-α-phenyl (and p-hydroxyphenyl)acetamido]-3-carbamoyloxymethyl-3-cephem-4-carboxylic acids” (priority 1977, dated 1979).
Values after ≈ are worked out from the molar mass of the structure shown. Like-named read-outs stand apart in the source and are kept apart here.

Legend:
[1] = test system: S. aureus; assay: MIC by serial two-fold agar dilution (Mueller-Hinton agar), S. aureus; format: cell-based; conditions: Staphylococcus aureus
Procedure: (§1) Minimum inhibitory concentrations (MIC) of BB-S520 were determined by serial two-fold agar dilution method using Steers' apparatus on Meuller-Hinton agar plate against 31 test organisms for the primary screening and also against 61 strains of Pseudomonas aeruginosa for the secondary evaluation. The results are shown in Table 1 and Table 2 along with those of BB-S514 and sulbenicillin.
(§2) Minimum inhibitory concentrations (MIC) of cephalosporins in the present study were determined by serial two-fold agar dilution method using Steers' apparatus on Mueller-Hinton agar plate against 31 test organisms for the primary screening and also against 61 strains of Pseudomonas aeruginosa for the secondary evaluation.

[2] = test system: E. coli; assay: MIC by serial two-fold agar dilution (Mueller-Hinton agar), E. coli; format: cell-based; conditions: Escherichia coli
Procedure: as §1, §2

[3] = test system: P. mirabilis; assay: MIC by serial two-fold agar dilution (Mueller-Hinton agar), P. mirabilis; format: cell-based
Procedure: as §1, §2

[4] = test system: P. aeruginosa; assay: MIC by serial two-fold agar dilution (Mueller-Hinton agar), P. aeruginosa, primary screening; format: cell-based
Procedure: as §1, §2

[5] = Mouse blood levels after subcutaneous injection; format: in vivo; conditions: sc
From the text: |Mouse Blood Levels | Blood Levels in Mcg./Ml. at | Indicated Hours After Subcu- |Dose in taneous Injection

[6] = test system: Pseudomonas sp.; assay: MIC by serial two-fold agar dilution (Mueller-Hinton agar), Pseudomonas sp.; format: cell-based; conditions: Pseudomonas sp. A20358, Table 6
Procedure: as §2

[7] = S. aureus BX-1633, Table 1, read-out: MIC
[8] = S. aureus Smith (1st line), Table 1, read-out: MIC
[9] = S. aureus Smith (2nd line), Table 1, read-out: MIC
[10] = S. aureus, unnamed strain (4th S. aureus line), Table 1, read-out: MIC
[11] = S. aureus, unnamed strain (5th S. aureus line), Table 1, read-out: MIC
[12] = S. aureus, unnamed strain (6th S. aureus line), Table 1, read-out: MIC
[13] = E. coli Juhl, Table 1, read-out: MIC
[14] = E. coli NIHJ, Table 1, read-out: MIC
[15] = E. coli, unnamed strain (4th E. coli line), Table 1, read-out: MIC
[16] = E. coli, unnamed strain (5th E. coli line), Table 1, read-out: MIC
[17] = E. coli, unnamed strain (6th E. coli line), Table 1, read-out: MIC
[18] = E. coli, unnamed strain (7th E. coli line), Table 1, read-out: MIC
[19] = E. coli, unnamed strain (8th E. coli line), Table 1, read-out: MIC
[20] = E. coli, unnamed strain (9th E. coli line), Table 1, read-out: MIC
[21] = Proteus mirabilis, P. mirabilis, Table 1, read-out: MIC
[22] = Pseudomonas aeruginosa, P. aeruginosa (2nd line), Table 1, read-out: MIC
[23] = Pseudomonas aeruginosa, P. aeruginosa (3rd line), Table 1, read-out: MIC
[24] = Pseudomonas aeruginosa, P. aeruginosa (4th line), Table 1, read-out: MIC
[25] = Pseudomonas aeruginosa, P. aeruginosa (6th line), Table 1, read-out: MIC

Compound: NC(=O)OCC1=C(C(=O)O)N2C(=O)C(NC(=O)[C@H](NC(=O)c3cnc4cccnc4c3O)c3ccccc3)[C@H]2SC1 (stereo partly drawn) [BB-S520, Sodium 7-[D-α-(4-hydroxy-1,5-naphthyridine-3-carboxamido)-α-phenylacetamido]-3-carbamoyloxymethyl-3-cephem-4-carboxylate]
- MIC [1, 7]: 0.8 µg/mL
- MIC [1, 8]: 0.8 µg/mL
- MIC [1, 9]: 1.6 µg/mL
- MIC [1, 10]: 25 µg/mL
- MIC [1, 11]: 1.6 µg/mL
- MIC [1, 12]: 50 µg/mL
- MIC [2, 13]: 1.6 µg/mL
- MIC [2, 14]: 0.05 µg/mL
- MIC [2, 15]: 0.8 µg/mL
- MIC [2, 16]: 100 µg/mL
- MIC [2, 17]: 3.1 µg/mL
- MIC [2, 18]: 100 µg/mL
- MIC [2, 19]: 3.1 µg/mL
- MIC [2, 20]: 0.4 µg/mL
- MIC [3, 21]: 0.4 µg/mL
- MIC ([4]; Pseudomonas aeruginosa, P. aeruginosa (1st line), Table 1, read-out: MIC): 1.6 µg/mL
- MIC [4, 22]: 3.1 µg/mL
- MIC [4, 23]: 3.1 µg/mL
- MIC [4, 24]: 12.5 µg/mL
- MIC ([4]; Pseudomonas aeruginosa, P. aeruginosa (5th line), Table 1, read-out: MIC): 1.6 µg/mL
- MIC [4, 25]: 1.6 µg/mL
- concentration at 0.25 h ([5]; in vivo, 20 mg/kg): 13000 ng/mL
- concentration at 0.5 h ([5]; in vivo, 20 mg/kg): 9000 ng/mL
- concentration at 1 h ([5]; in vivo, 20 mg/kg): 3700 ng/mL
- concentration at 0.25 h ([5]; in vivo, 40 mg/kg): 25000 ng/mL
- concentration at 0.5 h ([5]; in vivo, 40 mg/kg): 20000 ng/mL
- concentration at 1 h ([5]; in vivo, 40 mg/kg): 7000 ng/mL
- concentration at 2 h ([5]; in vivo, 40 mg/kg): 1000 ng/mL

Compound: CC1(C)S[C@@H]2[C@H](NC(=O)C(c3ccccc3)S(=O)(=O)O)C(=O)N2[C@H]1C(=O)O (stereo partly shown) [Sulbenicillin, sulbenicillin]
- MIC [1, 7]: 3.1 µg/mL (≈ 7.48 µM)
- MIC ([1]; S. aureus BX-1633 A9606, Table 6, read-out: MIC): 3.1 µg/mL (≈ 7.48 µM)
- MIC [1, 8]: 1.6 µg/mL (≈ 3.86 µM)
- MIC [1, 9]: 6.3 µg/mL (≈ 15.2 µM)
- MIC ([1]; S. aureus Smith A9537, Table 6, read-out: MIC): 3.1 µg/mL (≈ 7.48 µM)
- MIC ([1]; S. aureus Smith A15907, Table 6): 12.5 µg/mL (≈ 30.2 µM)
- MIC ([1]; S. aureus Smith A20239, Table 6, read-out: MIC): 6.3 µg/mL (≈ 15.2 µM)
- MIC ([1]; S. aureus Smith A20240, Table 6, read-out: MIC): 6.3 µg/mL (≈ 15.2 µM)
- MIC ([1]; S. aureus Smith A20701, Table 6, read-out: MIC): 50 µg/mL (≈ 121 µM)
- MIC [1, 10]: 25 µg/mL (≈ 60.3 µM)
- MIC [1, 11]: 3.1 µg/mL (≈ 7.48 µM)
- MIC [1, 12]: 50 µg/mL (≈ 121 µM)
- MIC ([2]; E. coli A9435, Table 6, read-out: MIC): 12.5 µg/mL (≈ 30.2 µM)
- MIC ([2]; E. coli A9844, Table 6, read-out: MIC): 0.8 µg/mL (≈ 1.93 µM)
- MIC ([2]; E. coli A10664, Table 6, read-out: MIC): 1.6 µg/mL (≈ 3.86 µM)
- MIC ([2]; E. coli A20366, Table 6, read-out: MIC): > 100 µg/mL
- MIC ([2]; E. coli A20520, Table 6, read-out: MIC): 6.3 µg/mL (≈ 15.2 µM)
- MIC ([2]; E. coli A20732, Table 6, read-out: MIC): 100 µg/mL (≈ 241 µM)
- MIC ([2]; E. coli A20898, Table 6, read-out: MIC): > 100 µg/mL
- MIC ([2]; E. coli Juhl A15119, Table 6, read-out: MIC): 3.1 µg/mL (≈ 7.48 µM)
- MIC [2, 13]: 1.6 µg/mL (≈ 3.86 µM)
- MIC [2, 14]: 0.8 µg/mL (≈ 1.93 µM)
- MIC ([2]; E. coli NIHJ, Table 6, read-out: MIC): 0.8 µg/mL (≈ 1.93 µM)
- MIC ([2]; E. coli, unnamed strain (3rd E. coli line), Table 1): 0.8 µg/mL (≈ 1.93 µM)
- MIC [2, 15]: 1.6 µg/mL (≈ 3.86 µM)
- MIC [2, 16]: > 100 µg/mL
- MIC [2, 17]: 6.3 µg/mL (≈ 15.2 µM)
- MIC [2, 18]: > 100 µg/mL
- MIC [2, 19]: > 100 µg/mL
- MIC [2, 20]: 6.3 µg/mL (≈ 15.2 µM)
- MIC ([3]; P. mirabilis A9900, Table 6): 0.8 µg/mL (≈ 1.93 µM)
- MIC [3, 21]: 0.8 µg/mL (≈ 1.93 µM)
- MIC ([4]; P. aeruginosa (5th line), Table 1): 12.5 Mcg./Ml.
- MIC ([4]; P. aeruginosa A15150, Table 6): 12.5 µg/mL (≈ 30.2 µM)
- MIC ([4]; P. aeruginosa A20229, Table 6): 12.5 µg/mL (≈ 30.2 µM)
- MIC ([4]; Pseudomonas aeruginosa): 12.5 µg/mL (≈ 30.2 µM)
- MIC [4, 22]: 25 µg/mL (≈ 60.3 µM)
- MIC [4, 23]: 25 µg/mL (≈ 60.3 µM)
- MIC [4, 24]: 100 µg/mL (≈ 241 µM)
- MIC [4, 25]: 3.1 µg/mL (≈ 7.48 µM)
- MIC ([4]; Pseudomonas aeruginosa, P. aeruginosa A9843, Table 6, read-out: MIC): 25 µg/mL (≈ 60.3 µM)
- MIC ([4]; Pseudomonas aeruginosa, P. aeruginosa A9930, Table 6, read-out: MIC): 25 µg/mL (≈ 60.3 µM)
- MIC ([4]; Pseudomonas aeruginosa, P. aeruginosa A20717, Table 6, read-out: MIC): 100 µg/mL (≈ 241 µM)
- MIC [6]: 3.1 µg/mL (≈ 7.48 µM)
- concentration at 0.25 h ([5]; blood, 20 mg/kg, subcutaneous, 20 Mgm./Kg., 0.25 hours, read-out: Blood Levels): 9800 ng/mL
- concentration at 0.5 h ([5]; blood, 20 mg/kg, subcutaneous, 20 Mgm./Kg., 0.5 hours, read-out: Blood Levels): 7500 ng/mL
- concentration at 1 h ([5]; blood, 20 mg/kg, subcutaneous, 20 Mgm./Kg., 1.0 hours, read-out: Blood Levels): 1200 ng/mL
- concentration at 0.25 h ([5]; blood, 40 mg/kg, subcutaneous, 40 Mgm./Kg., 0.25 hours, read-out: Blood Levels): 22000 ng/mL
- concentration at 0.5 h ([5]; blood, 40 mg/kg, subcutaneous, 40 Mgm./Kg., 0.5 hours, read-out: Blood Levels): 14000 ng/mL
- concentration at 1 h ([5]; blood, 40 mg/kg, subcutaneous, 40 Mgm./Kg., 1.0 hours, read-out: Blood Levels): 5000 ng/mL
- concentration at 2 h ([5]; blood, 40 mg/kg, subcutaneous, 40 Mgm./Kg., 2.0 hours, read-out: Blood Levels): < 1000 ng/mL
